Read-outs that look alike come from different tables or passages of the source.
Columns and labels:
[1] = system: p75^NTR receptors (PC12 cells); test: Basic screening assay: binding of 125I-NGF to PC12 cells; details: test compound 50 μM, 0.5 nM 125I-NGF, PC12 cells, 2 h at 4° C., specific binding as percent of control
How it was run: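 PC12 cells (4×10^6) incubated 2 h at 4° C with 0.5 nM 125I-NGF and test compound at 50 μM, rotating. Bound tracer pelleted through 10% glycerol and gamma-counted; specific binding expressed as percent of control after NSB subtraction.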

[2] = molecular target: T1, p75^NTR receptors (PC12 cells) (Rattus norvegicus, UniProt P07174); test: Basic screening assay: binding of 125I-BDNF to PC12 cells; details: read-out: BDNF Activity % Maximal Binding
T1 construct: endogenous in cells; host or cells: PC12 cells
T1 sequence (P07174 30-425): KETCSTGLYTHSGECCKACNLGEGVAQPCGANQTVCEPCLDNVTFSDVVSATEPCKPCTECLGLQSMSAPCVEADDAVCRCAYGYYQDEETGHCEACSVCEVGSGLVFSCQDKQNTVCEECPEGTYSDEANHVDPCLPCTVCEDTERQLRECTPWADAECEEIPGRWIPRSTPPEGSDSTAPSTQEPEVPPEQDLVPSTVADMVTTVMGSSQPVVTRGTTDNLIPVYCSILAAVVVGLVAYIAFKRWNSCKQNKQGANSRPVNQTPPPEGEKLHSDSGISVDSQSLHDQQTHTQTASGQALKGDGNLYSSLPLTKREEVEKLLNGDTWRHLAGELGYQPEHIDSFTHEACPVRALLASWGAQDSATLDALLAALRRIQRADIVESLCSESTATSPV
T1 sequence (P23560 129-247 partner): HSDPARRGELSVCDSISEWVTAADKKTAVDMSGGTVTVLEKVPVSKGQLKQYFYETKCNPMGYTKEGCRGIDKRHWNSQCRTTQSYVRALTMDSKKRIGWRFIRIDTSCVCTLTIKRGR
How it was run: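 4×10^6 PC12 cells incubated 2 h at 4° C, rotating, with 0.5 nM ^125I-BDNF (final) and compound at 50 μM, in duplicate or more. Bound ligand separated through 10% glycerol by centrifugation and counted by gamma counter; specific binding is Bmax minus NSB; inhibitors followed up for EC50.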

[3] = Table 2, test compound 50 μM, 0.5 nM 125I-BDNF, PC12 cells, 2 h at 4° C., specific binding as percent of control
[4] = Table 4, test compound 50 μM, 0.5 nM 125I-BDNF, PC12 cells, 2 h at 4° C., specific binding as percent of control

Structure (SMILES) | NGF Activity % Maximal Binding ([1]; Table 2) | activity at 50 µM [2, 3] [%] | NGF Activity % Maximal Binding ([1]; Table 4) | activity at 50 µM [2, 4] [%] | other results
Cc1c(-c2ccc(C=C3C(=O)NC(=S)NC3=O)o2)ccc([N+](=O)[O-])c1C [Compound 71, 5-[5-(2,3-Dimethyl-4-nitrophenyl)furan-2-ylmethylene]-2-thioxo-dihydro-pyrimidine-4,6-dione] | X (40 < X < 50) | – | – | – | activity at 50 µM [2]: 0 to 10%
O=C(O)c1ccc(Cl)c(-c2ccc(/C=C3/NC(=O)N(Cc4ccccc4F)C3=O)o2)c1 [Compound 72, 4-Chloro-3-{5-[1-(2-fluorobenzyl)-2,5-dioxo-imidazolidin-4-ylidenemethyl]furan-2-yl}benzoic acid] | X (40 < X < 50) | 0 to 10 | – | – | –
CCN1C(=O)S/C(=C/c2ccc(-c3ccc(C(=O)O)cc3)o2)C1=O [Compound 73, 4-[5-(3-Ethyl-2,4-dioxo-thiazolidin-5-ylidenemethyl)furan-2-yl]benzoic acid] | X (40 < X < 50) | 0 to 10 | – | – | –
NS(=O)(=O)c1cccc(-c2ccc(/C=C3/SC(=S)N(CC(=O)O)C3=O)o2)c1 [Compound 74, {4-oxo-5-[5-(3-sulfamoylphenyl)furan-2-ylmethylene]-2-thioxo-thiazolidin-3-yl}-acetic acid] | X (40 < X < 50) | 0 to 10 | – | – | –
O=C1NC(=O)C(=Cc2ccc(-c3ccc(Cl)c(C(=O)O)c3)o2)C(=O)N1 [Compound 75, 2-Chloro-5-[5-(2,4,6-trioxo-tetrahydro-pyrimidin-5-ylidenemethyl)furan-2-yl]benzoic acid] | X (40 < X < 50) | – | – | – | activity at 50 µM [2]: 0 to 10%
Cc1cc(C(=O)O)ccc1-c1ccc(/C=C2\SC(=O)N(C)C2=O)o1 [Compound 76, 3-Methyl-4-[5-(3-methyl-2,4-dioxo-thiazolidin-5-ylidenemethyl)furan-2-yl]benzoic acid] | X (40 < X < 50) | 0 to 10 | – | – | –
CN1C(=O)NC(=O)/C(=C/c2ccc(-c3cccc(C(=O)O)c3)o2)C1=O [Compound 77, 3-[5-(1-Methyl-2,4,6-trioxo-tetrahydro-pyrimidin-5-ylidenemethyl)furan-2-yl]benzoic acid] | XXX (20 < XXX < 30) | – | – | – | activity at 50 µM [2]: 10 to 20%
CN1C(=O)NC(=O)C(=Cc2ccc(-c3cccc([N+](=O)[O-])c3)o2)C1=O [Compound 78, 1-Methyl-5-[5-(3-nitrophenyl)furan-2-ylmethylene]-pyrimidine-2,4,6-trione] | X (40 < X < 50) | – | – | – | activity at 50 µM [2]: 10 to 20%
COC(=O)CN1C(=O)S/C(=C/c2ccc(-c3ccc(C(=O)O)cc3)o2)C1=O [Compound 79, 4-[5-(3-Methoxycarbonylmethyl-2,4-dioxo-thiazolidin-5-ylidenemethyl)furan-2-yl]benzoic acid] | X (40 < X < 50) | 10 to 20 | – | – | –
CN1C(=O)S/C(=C/c2ccc(-c3ccc(C(=O)O)c(Cl)c3)o2)C1=O [Compound 80, 2-Chloro-4-[5-(3-methyl-2,4-dioxo-thiazolidin-5-ylidenemethyl)furan-2-yl]benzoic acid] | X (40 < X < 50) | 10 to 20 | – | – | –
Cc1c(-c2ccc(C=C3C(=O)NC(=O)NC3=O)o2)ccc([N+](=O)[O-])c1C [Compound 81, 5-[5-(2,3-Dimethyl-4-nitrophenyl)furan-2-ylmethylene]-pyrimidine-2,4,6-trione] | XX (30 < XX < 40) | – | – | – | activity at 50 µM [2]: 20 to 30%
Cc1cccc(N2NC(=O)C(=Cc3ccc(-c4ccc(C(=O)O)cc4)o3)C2=O)c1 [Compound 82, 4-[5-(3,5-Dioxo-1-m-tolyl-pyrazolidin-4-ylidenemethyl)furan-2-yl]benzoic acid] | X (40 < X < 50) | 20 to 30 | – | – | –
O=C(O)CCCN1C(=O)C(=Cc2ccc(-c3cccc([N+](=O)[O-])c3)o2)SC1=S [Compound 84, 4-{5-[5-(3-Nitrophenyl)furan-2-ylmethylene]-4-oxo-2-thioxo-thiazolidin-3-yl}-butyric acid] | XXXXX (0 < XXXXX < 10) | 40 to 50 | – | – | –
O=C1NC(=S)N/C1=C/c1ccc(-c2ccc(Cl)c(C(=O)O)c2)o1 [Compound 85, 2-Chloro-5-[5-(5-oxo-2-thioxo-imidazolidin-4-ylidenemethyl)furan-2-yl]benzoic_acid] | – | – | – | – | NGF Activity % Maximal Binding ([1]; Table 3): X (40 < X < 50); activity at 50 µM ([2]; Table 3, test compound 50 μM, 0.5 nM 125I-BDNF, PC12 cells, 2 h at 4° C., specific binding as percent of control): > 50%
O=C1NC(=O)C(=Cc2ccc(-c3cccc([N+](=O)[O-])c3)o2)S1 [Compound 87, 5-[5-(3-Nitrophenyl)furan-2-ylmethylene]-thiazolidine-2,4-dione] | – | – | * (50 < *) | > 50 | –
Cc1ccc([N+](=O)[O-])cc1-c1ccc(/C=C2/SC(=O)NC2=O)o1 [Compound 88, 5-[5-(2-Methyl-5-nitrophenyl)furan-2-ylmethylene]-thiazolidine-2,4-dione] | – | – | * (50 < *) | > 50 | –
O=C1NC(=S)N/C1=C\c1ccc(-c2cccc([N+](=O)[O-])c2)o1 [Compound 89, 5-[5-(3-Nitrophenyl)furan-2-ylmethylene]-2-thioxo-imidazolidin-4-one] | – | – | * (50 < *) | > 50 | –
COc1cc([N+](=O)[O-])ccc1-c1ccc(/C=C2\NC(=S)NC2=O)o1 [Compound 90, 5-[5-(2-Methoxy-4-nitrophenyl)furan-2-ylmethylene]-2-thioxo-imidazolidin-4-one] | – | – | * (50 < *) | > 50 | –
COC(=O)c1cc(-c2ccc(/C=C3/NC(=S)NC3=O)o2)ccc1Cl [Compound 91, 2-Chloro-5-[5-(5-oxo-2-thioxo-imidazolidin-4-ylidenemethyl)furan-2-yl]benzoic acid methyl ester] | – | – | * (50 < *) | > 50 | –
Cc1cc([N+](=O)[O-])ccc1-c1ccc(C=C2SC(=O)NC2=O)o1 [Compound 92, 5-[5-(2-Methyl-4-nitrophenyl)furan-2-ylmethylene]-thiazolidine-2,4-dione] | – | – | * (50 < *) | > 50 | –
O=C1NC(=S)N/C1=C/c1ccc(-c2ccc(Cl)c([N+](=O)[O-])c2)o1 [Compound 93, 5-[5-(4-Chloro-3-nitrophenyl)furan-2-ylmethylene]-2-thioxo-imidazolidin-4-one] | – | – | * (50 < *) | > 50 | –
Cc1cc([N+](=O)[O-])ccc1-c1ccc(C=C2NC(=S)NC2=O)o1 [Compound 94, 5-[5-(2-Methyl-4-nitrophenyl)furan-2-ylmethylene]-2-thioxo-imidazolidin-4-one] | – | – | * (50 < *) | > 50 | –
Cc1cc(-c2ccc(C=C3NC(=S)NC3=O)o2)ccc1[N+](=O)[O-] [Compound 95, 5-[5-(3-Methyl-4-nitrophenyl)furan-2-ylmethylene]-2-thioxo-imidazolidin-4-one] | – | – | * (50 < *) | > 50 | –
Cc1cc(-c2ccc(C=C3C(=O)NC(=O)NC3=O)o2)ccc1[N+](=O)[O-] [Compound 96, 5-[5-(3-Methyl-4-nitrophenyl)furan-2-ylmethylene]-pyrimidine-2,4,6-trione] | – | – | * (50 < *) | – | activity at 50 µM [2]: > 50%

From patent US20050282840A1, “Methods of modulating neurotrophin-mediated activity” (PainCeptor Pharma Corporation, priority 2004, published 2005)
